Test results from patent publication US20210379016A1, “THERAPEUTICS AND METHODS OF TREATMENT OF ANGIOTENSIN-CONVERTING ENZYME 2 ASSOCIATED CONDITIONS” (Board of Supervisors of Louisiana State University and …, priority 2020, published 2021).
Entries after “also recorded” stand apart in the source; their conditions may differ.

Legend:
Sigmar1 = Sigmar1 (Homo sapiens, UniProt Q99720); settings: cited from earlier work; for Ki: read-out: binding affinity Ki for Sigmar1
[1] = test system: ACE2 expression in HEK-293 cells; test: ACE2 expression in HEK-293 cells treated with Sigmar1 ligands for 24 hours; assay type: cell-based; settings: 24 hours treatment

Sigmar1, sequence (Q99720 whole entry, species assumed): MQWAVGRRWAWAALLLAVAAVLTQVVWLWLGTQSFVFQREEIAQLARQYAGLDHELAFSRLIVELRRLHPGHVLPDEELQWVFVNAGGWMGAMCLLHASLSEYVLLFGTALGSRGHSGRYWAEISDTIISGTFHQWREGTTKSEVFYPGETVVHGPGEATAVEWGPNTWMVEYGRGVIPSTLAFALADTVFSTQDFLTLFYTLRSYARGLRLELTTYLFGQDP

For `c1ccc(CCN2CCCCC2)cc1` [AC927, 1-(2-phenylethyl) piperidine], the Ki (Sigmar1) is listed as 30 ± 2 nM.
For `CN1CCN(CCc2ccc(Cl)c(Cl)c2)CC1` [BD1063, 1-[2-(3,4-dichlorophenyl)ethyl]-4-methylpiperazine], the Ki (Sigmar1) is listed as 9 ± 1 nM.
In the case of `CCN(CCc1ccc(Cl)c(Cl)c1)CCN1CCCC1` [BD1067, N-[2-(3,4-dichlorophenyl)ethyl]-N-ethyl-1-pyrrolidineethanamine], the Ki (Sigmar1) is given as 2 ± 0.5 nM.
For `S=c1sc2ccccc2n1CCCCN1CCN(C2CCCCC2)CC1` [CM156, 3-(4-(4-cyclohexylpiperazin-1-yl)butyl) benzo [d]thiazole-2(3H)-thione], the “affinity for Sigmar1 (in words)” value (Sigmar1) is given as “nanomolar affinity”.
For `CCCN(CCC)CCc1ccc(OC)c(OCCc2ccccc2)c1` [NE-100, 4-methoxy-3-(2-phenylethoxy)-N,N-dipropylbenzeneethanamine], the ACE2 expression [1] was “significantly decreased the ACE2 expression; also recorded: decreases the ACE2 expression”.
In the case of `COc1ccc(N2C[C@H](CN3CCC(O)(c4ccc5c(c4)OCO5)CC3)OC2=O)cc1` [Panamesine], the IC50 (Sigmar1) is listed as 6 nM.
With `CN[C@H]1CC[C@@H](c2ccc(Cl)c(Cl)c2)c2ccccc21` [Sertraline] the ACE2 expression [1] was “significantly decreased the ACE2 expression; also recorded: decreases the ACE2 expression”.
